Assay results from PubChem BioAssay (NCI).
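Tested at 5 concentrations; 48 h exposure; 96-well plates; endpoints linearly interpolated, else capped at highest concentration. TGI: total growth inhibition.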

Tests used:
Test in all cases: DTP human tumour cell line panel, 48 h
786-0 renal = tested on: 786-0 renal
A498 renal = tested on: A498 renal
A549 NSCLC = tested on: A549 NSCLC
ACHN renal = tested on: ACHN renal
CAKI-1 renal = tested on: CAKI-1 renal
CCRF-CEM leukemia = tested on: CCRF-CEM leukemia
COLO 205 colon = tested on: COLO 205 colon
DU-145 prostate = tested on: DU-145 prostate
EKVX NSCLC = tested on: EKVX NSCLC
HCT-116 colon = tested on: HCT-116 colon
HCT-15 colon = tested on: HCT-15 colon
HL-60(TB) leukemia = tested on: HL-60(TB) leukemia
HOP-62 NSCLC = tested on: HOP-62 NSCLC
HOP-92 NSCLC = tested on: HOP-92 NSCLC
HS 578T breast = tested on: HS 578T breast
HT29 colon = tested on: HT29 colon
IGROV1 ovarian = tested on: IGROV1 ovarian
K-562 leukemia = tested on: K-562 leukemia
KM12 colon = tested on: KM12 colon
LOX IMVI melanoma = tested on: LOX IMVI melanoma
M14 melanoma = tested on: M14 melanoma
MCF7 breast = tested on: MCF7 breast
MDA-MB-231 breast = tested on: MDA-MB-231 breast
MDA-MB-435 = tested on: MDA-MB-435
MDA-N = tested on: MDA-N
MOLT-4 leukemia = tested on: MOLT-4 leukemia
NCI-H226 lung = tested on: NCI-H226 lung
NCI-H23 lung = tested on: NCI-H23 lung
NCI-H460 lung = tested on: NCI-H460 lung
NCI-H522 lung = tested on: NCI-H522 lung
NCI/ADR-RES ovarian = tested on: NCI/ADR-RES ovarian
OVCAR-3 ovarian = tested on: OVCAR-3 ovarian
OVCAR-4 ovarian = tested on: OVCAR-4 ovarian
OVCAR-5 ovarian = tested on: OVCAR-5 ovarian
OVCAR-8 ovarian = tested on: OVCAR-8 ovarian
PC-3 prostate = tested on: PC-3 prostate
RPMI-8226 leukemia = tested on: RPMI-8226 leukemia
SF-268 CNS = tested on: SF-268 CNS
SF-295 CNS = tested on: SF-295 CNS
SF-539 CNS = tested on: SF-539 CNS
SK-MEL-2 melanoma = tested on: SK-MEL-2 melanoma
SK-MEL-28 melanoma = tested on: SK-MEL-28 melanoma
SK-MEL-5 melanoma = tested on: SK-MEL-5 melanoma
SK-OV-3 ovarian = tested on: SK-OV-3 ovarian
SN12C renal = tested on: SN12C renal
SNB-19 CNS = tested on: SNB-19 CNS
SNB-75 CNS = tested on: SNB-75 CNS
SR leukemia = tested on: SR leukemia
SW-620 colon = tested on: SW-620 colon
T-47D breast = tested on: T-47D breast
TK-10 renal = tested on: TK-10 renal
U251 CNS = tested on: U251 CNS
UACC-257 melanoma = tested on: UACC-257 melanoma
UACC-62 melanoma = tested on: UACC-62 melanoma
UO-31 renal = tested on: UO-31 renal
RXF 393 renal = tested on: RXF 393 renal
HCC-2998 colon = tested on: HCC-2998 colon
MALME-3M melanoma = tested on: MALME-3M melanoma

Measured: TGI

C=CCCC1CCCCC/C1=N\N(C)C (stereo not drawn)
> 100 µM: 786-0 renal | A498 renal | A549 NSCLC | ACHN renal | CAKI-1 renal | CCRF-CEM leukemia | COLO 205 colon | DU-145 prostate | EKVX NSCLC | HCT-116 colon | HCT-15 colon | HL-60(TB) leukemia | HOP-62 NSCLC | HOP-92 NSCLC | HS 578T breast | HT29 colon | IGROV1 ovarian | K-562 leukemia | KM12 colon | LOX IMVI melanoma | M14 melanoma | MCF7 breast | MDA-MB-231 breast | MDA-MB-435 | MDA-N | MOLT-4 leukemia | NCI-H226 lung | NCI-H23 lung | NCI-H460 lung | NCI-H522 lung | NCI/ADR-RES ovarian | OVCAR-3 ovarian | OVCAR-4 ovarian | OVCAR-5 ovarian | OVCAR-8 ovarian | PC-3 prostate | RPMI-8226 leukemia | SF-268 CNS | SF-295 CNS | SF-539 CNS | SK-MEL-2 melanoma | SK-MEL-28 melanoma | SK-MEL-5 melanoma | SK-OV-3 ovarian | SN12C renal | SNB-19 CNS | SNB-75 CNS | SR leukemia | SW-620 colon | T-47D breast | TK-10 renal | U251 CNS | UACC-257 melanoma | UACC-62 melanoma | UO-31 renal

COc1ccccc1-c1cc(=O)c2ccccc2n1C1CC1
5.78 µM: ACHN renal
14.8 µM: SK-MEL-5 melanoma
9.73 µM: T-47D breast
14.4 µM: DU-145 prostate
11.1 µM: COLO 205 colon
35.5 µM: HL-60(TB) leukemia
5.64 µM: RPMI-8226 leukemia
27.8 µM: PC-3 prostate
20.5 µM: SF-268 CNS
12.2 µM: HCT-15 colon
19 µM: UO-31 renal
4.37 µM: HT29 colon
6.62 µM: RXF 393 renal
11.5 µM: UACC-62 melanoma
15.8 µM: SW-620 colon
31.3 µM: NCI/ADR-RES ovarian
8.07 µM: SK-MEL-2 melanoma
15 µM: NCI-H226 lung
12.5 µM: MDA-MB-435
19.8 µM: HOP-92 NSCLC
41.1 µM: SK-OV-3 ovarian
15.7 µM: NCI-H460 lung
15.4 µM: HOP-62 NSCLC
16.5 µM: SF-539 CNS
18.7 µM: MCF7 breast | SR leukemia
16.2 µM: M14 melanoma
34.3 µM: SNB-19 CNS
15.5 µM: LOX IMVI melanoma
18 µM: MDA-N
7.99 µM: SF-295 CNS
5.63 µM: NCI-H522 lung
14.2 µM: OVCAR-5 ovarian | U251 CNS
12.8 µM: A549 NSCLC
16 µM: MDA-MB-231 breast
> 100 µM: K-562 leukemia
25.7 µM: HS 578T breast
12 µM: KM12 colon
18.1 µM: OVCAR-8 ovarian
26.6 µM: UACC-257 melanoma
45.9 µM: MOLT-4 leukemia
11 µM: OVCAR-3 ovarian
15.3 µM: 786-0 renal
22.8 µM: NCI-H23 lung
56.1 µM: CCRF-CEM leukemia
10.4 µM: HCT-116 colon
44 µM: IGROV1 ovarian
19.5 µM: SN12C renal
14.1 µM: CAKI-1 renal

CN(C)CCCNC(=O)N/N=C\c1cccc2ccccc12
> 10 µM: A498 renal | A549 NSCLC | ACHN renal | CCRF-CEM leukemia | COLO 205 colon | DU-145 prostate | EKVX NSCLC | HCC-2998 colon | HCT-116 colon | HCT-15 colon | HL-60(TB) leukemia | HOP-62 NSCLC | HOP-92 NSCLC | HS 578T breast | HT29 colon | IGROV1 ovarian | K-562 leukemia | KM12 colon | LOX IMVI melanoma | M14 melanoma | MALME-3M melanoma | MCF7 breast | MDA-MB-231 breast | MDA-N | MOLT-4 leukemia | NCI-H460 lung | NCI-H522 lung | NCI/ADR-RES ovarian | OVCAR-4 ovarian | OVCAR-5 ovarian | OVCAR-8 ovarian | PC-3 prostate | RPMI-8226 leukemia | RXF 393 renal | SF-268 CNS | SF-295 CNS | SF-539 CNS | SK-MEL-28 melanoma | SK-MEL-5 melanoma | SK-OV-3 ovarian | SN12C renal | SNB-75 CNS | SR leukemia | SW-620 colon | T-47D breast | TK-10 renal | UACC-62 melanoma | UO-31 renal
